Measured values as given in patent US8440830B2, “Tetrahydro-fused pyridines as histone deacetylase inhibitors” (4SC AG, priority 2007, dated 2013).
Structures can show the parent of a compound that is named as a salt.

The molecules below were run on A549 NSCLC cells (assay: Cellular cytotoxicity assay (Alamar Blue), A549). Settings: Homo sapiens, 72 h, upper end given as ≧100, read-out: IC50 (μM), cytotoxicity towards A549 NSCLC cells.
Type: cell-based
Method: The anti-proliferative activity of the histone deacetylase inhibitory compounds as described herein, is evaluated using the following cell lines: HeLa and HeLa-KB (cervical carcinoma), H460 (non small cell lung cancer), A549 (non-small cell lung cancer), MCF7 (breast carcinoma), MCF10A (normal, non tumorigenic breast epithelial), MDA-MB468 (breast carcinoma), MDA-MB435 (breast carcinoma), MDA-MB231 (breast carcinoma), SKBR-3 (breast carcinoma), SKOV-3 (ovarial carcinoma), A-2780 (ovarial carcinoma), RKO (colon carcinoma), HCT-15 (colon carcinoma), HCT-116 (colon carcinoma), PC3 (prostate carcinoma), BPH1 (benign prostate hyperplasia), AsPC1 (pancreatic carcinoma), Ca127 (tongue carcinoma), A-431 (vulva carcinoma), Hec1A (endometrial carcinoma), Saos-2 (osteosarcoma), U87MG (glioblastoma), WM266-4 (melanoma), K562 (chronic myeloid leukemia), EOL1 (acute hypereosinophilic myeloid leukemia), CCRF-CEM and CCRF-CEM VCR1000 (acute lymphoblastic leukemia sensitive and resistant towards Vincristine). For quantification of cellular proliferation/living cells the Alamar Blue (Resazurin) cell viability assay is applied (O'Brien et al. Eur J Biochem 267, 5421-5426, 2000). In this assay Resazurin is reduced to the fluorescent resorufine by cellular dehydrogenase activity, correlating with viable, proliferating cells. The examples are dissolved as 20 mM solutions in dimethylsulfoxide (DMSO) and subsequently diluted in semi-logarithmic steps. Cell lines are seeded at respective density into 96 well flat bottom plates in a volume of 200 μl per well. 24 h after seeding 1 μl each of the compound dilutions are added into each well of the 96 well plate. Each compound dilution is tested as quadruplicates. Wells containing untreated control cells are filled with 200 μl DMEM medium containing 0.5% v:v DMSO. The cells are then incubated with the compounds for 72 h at 37° C. in a humidified atmosphere containing 5% carbon dioxide. To determine the viability of the cells, 20 μl of a Resazurin solution (Sigma; 90 mg/l) are added. After 4 h incubation at 37° C. the fluorescence is measured at an extinction of λ=544 nm and an emission of λ=590 nm. For the calculation of the cell viability the emission value from untreated cells is set as 100% viability and the emission rates of treated cells are set in relation to the values of untreated cells. Viabilities are expressed as % values. The corresponding IC50 values of the compounds for cytotoxic activity are determined from the concentration-effect curves by means of non-linear regression.

| Compound | IC50 |
| --- | --- |
| Nc1ccccc1NC(=O)c1nc2c(s1)CN(C(=O)c1ccc(-c3ccccc3)cc1)CC2 [Example 88, N-(2-aminophenyl)-5-(biphenyl-4-ylcarbonyl)-4,5,6,7-tetrahydro[1,3]thiazolo[5,4-c]pyridine-2-carboxamide] | ≥ 0.2 µM |
| Cc1ccc(C(=O)N2CCc3nc(C(=O)Nc4ccccc4N)sc3C2)cc1 [Example 89, N-(2-aminophenyl)-5-(4-methylbenzoyl)-4,5,6,7-tetrahydro[1,3]thiazolo[5,4-c]pyridine-2-carboxamide] | ≥ 0.2 µM |
| COC(=O)c1ccc(C(=O)N2CCc3nc(C(=O)Nc4ccccc4N)sc3C2)cc1 [Example 90, Methyl 4-({2-[(2-aminophenyl)carbamoyl]-6,7-dihydro[1,3]thiazolo[5,4-c]pyridin-5(4H)-yl}carbonyl)benzoate] | ≥ 0.2 µM |
| CN(C)c1ccc(C(=O)N2CCc3nc(C(=O)Nc4ccccc4N)sc3C2)cc1 [Example 91, N-(2-aminophenyl)-5-[4-(dimethylamino)benzoyl]-4,5,6,7-tetrahydro[1,3]thiazolo[5,4-c]pyridine-2-carboxamide] | ≥ 0.2 µM |
| COc1ccc(C(=O)N2CCc3nc(C(=O)Nc4ccccc4N)sc3C2)cc1 [Example 93, N-(2-aminophenyl)-5-(4-methoxybenzoyl)-4,5,6,7-tetrahydro[1,3]thiazolo[5,4-c]pyridine-2-carboxamide] | ≥ 0.2 µM |
| Nc1ccccc1NC(=O)c1nc2c(s1)CN(C(=O)c1cnc3ccccc3c1)CC2 [Example 94, N-(2-aminophenyl)-5-(quinolin-3-ylcarbonyl)-4,5,6,7-tetrahydro[1,3]thiazolo[5,4-c]pyridine-2-carboxamide] | ≥ 0.2 µM |
| Nc1ccccc1NC(=O)c1nc2c(s1)CN(C(=O)c1ccc3ccccc3c1)CC2 [Example 95, N-(2-aminophenyl)-5-(2-naphthoyl)-4,5,6,7-tetrahydro[1,3]thiazolo[5,4-c]-pyridine-2-carboxamide] | ≥ 0.2 µM |
| CN(C)c1cccc(C(=O)N2CCc3nc(C(=O)Nc4ccccc4N)sc3C2)c1 [Example 97, N-(2-aminophenyl)-5-[3-(dimethylamino)benzoyl]-4,5,6,7-tetrahydro[1,3]thiazolo[5,4-c]pyridine-2-carboxamide] | ≥ 0.2 µM |
| Nc1ccccc1NC(=O)c1nc2c(s1)CN(C(=S)Nc1ccccc1)CC2 [Example 98, N-(2-aminophenyl)-5-(anilinocarbonothioyl)-4,5,6,7-tetrahydro[1,3]thiazolo[5,4-c]pyridine-2-carboxamide] | ≥ 0.2 µM |
| CN(C)c1ccc(NC(=S)N2CCc3nc(C(=O)Nc4ccccc4N)sc3C2)cc1 [Example 99, N-(2-aminophenyl)-5-({[4-(dimethylamino)phenyl]amino}carbonothioyl)-4,5,6,7-tetrahydro[1,3]thiazolo[5,4-c]pyridine-2-carboxamide] | ≥ 0.2 µM |
| Nc1ccccc1NC(=O)c1nc2c(s1)CN(C(=S)NC1CCNCC1)CC2 [Example 100, N-(2-aminophenyl)-5-[(piperidin-4-ylamino)carbonothioyl]-4,5,6,7-tetrahydro[1,3]thiazolo[5,4-c]pyridine-2-carboxamide] | ≥ 0.2 µM |
| Nc1ccccc1NC(=O)c1nc2c(s1)CN(C(=S)NC1CCC(c3cccnc3)CC1)CC2 (stereo not shown) [Example 101, N-(2-aminophenyl)-5-{[(4-pyridin-3-ylcyclohexyl)amino]carbonothioyl}-4,5,6,7-tetrahydro[1,3]thiazolo[5,4-c]pyridine-2-carboxamide] | ≥ 0.2 µM |
| COc1ccc(N)c(NC(=O)c2nc3c(s2)CN(C(=S)Nc2ccccc2)CC3)c1 [Example 102, N-(2-amino-5-methoxyphenyl)-5-(anilinocarbonothioyl)-4,5,6,7-tetrahydro[1,3]thiazolo[5,4-c]pyridine-2-carboxamide] | ≥ 0.2 µM |
| Nc1ccccc1NC(=O)c1nc2c(s1)CN(C(=S)Nc1cccnc1)CC2 [Example 103, N-(2-aminophenyl)-5-[(pyridin-3-ylamino)carbonothioyl]-4,5,6,7-tetrahydro[1,3]thiazolo[5,4-c]pyridine-2-carboxamide] | ≥ 0.2 µM |
| Nc1ccccc1NC(=O)c1nc2c(s1)CN(C(=S)Nc1cccc3cnccc13)CC2 [Example 104, N-(2-aminophenyl)-5-[(isoquinolin-5-ylamino)carbonothioyl]-4,5,6,7-tetrahydro[1,3]thiazolo[5,4-c]pyridine-2-carboxamide] | ≥ 0.2 µM |
| CCCCNC(=S)N1CCc2nc(C(=O)Nc3ccccc3N)sc2C1 [Example 105] | ≥ 0.2 µM |
| COc1ccc(NC(=S)N2CCc3nc(C(=O)Nc4cc(OC)ccc4N)sc3C2)cc1 [Example 106, N-(2-amino-5-methoxyphenyl)-5-{[(4-methoxyphenyl)amino]carbonothioyl}-4,5,6,7-tetrahydro[1,3]thiazolo[5,4-c]pyridine-2-carboxamide] | ≥ 0.2 µM |
| COc1ccc(N)c(NC(=O)c2nc3c(s2)CN(C(=S)Nc2cccnc2)CC3)c1 [Example 107, N-(2-amino-5-methoxyphenyl)-5-[(pyridin-3-ylamino)carbonothioyl]-4,5,6,7-tetrahydro[1,3]thiazolo[5,4-c]pyridine-2-carboxamide] | ≥ 0.2 µM |
| CC(C)c1ccc(N)c(NC(=O)c2nc3c(s2)CN(C(=S)Nc2cccnc2)CC3)c1 [Example 108, N-(2-amino-5-isopropylphenyl)-5-[(pyridin-3-ylamino)carbonothioyl]-4,5,6,7-tetrahydro[1,3]thiazolo[5,4-c]pyridine-2-carboxamide] | ≥ 0.2 µM |
| CC(C)c1ccc(N)c(NC(=O)c2nc3c(s2)CN(C(=S)Nc2ccccc2)CC3)c1 [Example 109, N-(2-amino-5-isopropylphenyl)-5-(anilinocarbonothioyl)-4,5,6,7-tetrahydro[1,3]thiazolo[5,4-c]pyridine-2-carboxamide] | ≥ 0.2 µM |
| COc1ccc(NC(=S)N2CCc3nc(C(=O)Nc4cc(C(C)C)ccc4N)sc3C2)cc1 [Example 110, N-(2-amino-5-isopropylphenyl)-5-{[(4-methoxyphenyl)amino]carbonothioyl}-4,5,6,7-tetrahydro[1,3]thiazolo[5,4-c]pyridine-2-carboxamide] | ≥ 0.2 µM |
| COc1ccc(NC(=N)N2CCc3nc(C(=O)Nc4ccccc4N)sc3C2)cc1 [Example 111, N-(2-aminophenyl)-5-{imino[(4-methoxyphenyl)amino]methyl}-4,5,6,7-tetrahydro[1,3]thiazolo[5,4-c]pyridine-2-carboxamide] | ≥ 0.2 µM |
| CN=C(Nc1ccccc1)N1CCc2nc(C(=O)Nc3ccccc3N)sc2C1 [Example 114, N-(2-aminophenyl)-5-[anilino(methylimino)methyl]-4,5,6,7-tetrahydro[1,3]thiazolo[5,4-c]pyridine-2-carboxamide. (Dihydrochloride)] | ≥ 0.2 µM |
| CN=C(Nc1ccc(OC)cc1)N1CCc2nc(C(=O)Nc3cc(OC)ccc3N)sc2C1 [Example 115, N-(2-amino-5-methoxyphenyl)-5-[[(4-methoxyphenyl)amino](methylimino)methyl]-4,5,6,7-tetrahydro[1,3]thiazolo[5,4-c]pyridine-2-carboxamide] | ≥ 0.2 µM |
| Cc1ccccc1NC(=NC#N)N1CCc2nc(C(=O)Nc3ccccc3N)sc2C1 [Example 119, N-(2-aminophenyl)-5-{(cyanoimino)[(2-methylphenyl)amino]methyl}-4,5,6,7-tetrahydro[1,3]thiazolo[5,4-c]pyridine-2-carboxamide] | ≥ 0.2 µM |
